According to patent US10620225B2, “Detection of polymyxins” (Randox Laboratories Limited, priority 2014, dated 2020):

Experiments:
Assay type in all cases: binding, sheep
Antibody RS2801 = experiment: Competitive biochip immunoassay with Polymyxin B-KLH derived antibody RS2801 and Colistin-HRP tracer
Description: (§1) The process of developing an immunoassay is well known to the person skilled in the art. Briefly, for a competitive immunoassay in which the target analyte is a non-immunogenic molecule such as a hapten, a general immunoassay development process outlined. Following antibody production, a detecting agent is added to a sample containing the target analyte and the raised antibodies, and the detecting agent and analyte compete for binding to the antibodies. The process may comprise fixing said serum antibodies to a solid state device such as a polystyrene support or a ceramic chip. The antibodies can be polyclonal or monoclonal using standard techniques, but the current invention makes use of polyclonal antibodies. The signal emitted in the immunoassay is proportionate to the quantity of detecting agent bound to the antibodies which in turn is inversely proportionate to the analyte concentration. The signal can be detected or quantified by comparison with a calibrator.
(§2) 175 μl of assay diluent, then 25 μl of Polymyxin diluted in calibrator base was added to the appropriate wells. Biochips spotted with antibody of the invention were incubated for 30 min at 25° C. in a thermo-shaker at 370 rpm. 100 μl Tracer of the invention was added to the appropriate wells. Biochips were incubated for 60 min at 25° C. in a thermo-shaker at 370 rpm. Biochips were washed with TBST (2 quick washes followed by 4 washes at 2 min intervals). Biochips were developed with 250 μl signal: peroxide (1:1) for 2 min in the dark. Biochips were imaged on the Randox Investigator (2×60 sec images). All biochips were manually processed.

Antibody RS2830 = experiment: Competitive biochip immunoassay with Polymyxin B-KLH derived antibody RS2830 and Colistin-HRP tracer
Description: as §1, §2

Antibody RS2790 = experiment: Competitive biochip immunoassay with Polymyxin B-KLH derived antibody RS2790 and Colistin-HRP tracer
Description: as §1, §2

[1] = system: Polymyxin B derived antibody; experiment: Competitive biochip immunoassay, standard curves with Polymyxin B derived antibody and Colistin-based tracer; details: for CR (percentage cross-reactivity) / IC50 (standard concentration which produces 50% inhibition of maximal signal): Polymyxin B derived antibody, Colistin-based tracer
Description: as §1, §2

[2] = antibody 0.1 mg/ml, Colistin-HRP tracer dilution 1/500K
[3] = antibody 0.1 mg/ml, Colistin-HRP tracer dilution 1/1000K
[4] = antibody 0.1 mg/ml, tracer dilution 1/500K
[5] = antibody 0.1 mg/ml, tracer dilution 1/1000K
[6] = antibody 0.75 mg/ml, Colistin-HRP tracer dilution 1/500K
[7] = antibody 0.75 mg/ml, Colistin-HRP tracer dilution 1/1000K
[8] = antibody 0.75 mg/ml, tracer dilution 1/500K
[9] = antibody 0.75 mg/ml, tracer dilution 1/1000K
[10] = antibody 0.1 mg/ml, Colistin-HRP tracer dilution 1/50K
[11] = antibody 0.1 mg/ml, Colistin-HRP tracer dilution 1/100K
[12] = antibody 0.1 mg/ml, tracer dilution 1/50K
[13] = antibody 0.1 mg/ml, tracer dilution 1/100K
[14] = antibody 0.75 mg/ml, Colistin-HRP tracer dilution 1/50K
[15] = antibody 0.75 mg/ml, Colistin-HRP tracer dilution 1/100K
[16] = antibody 0.75 mg/ml, tracer dilution 1/50K
[17] = antibody 0.75 mg/ml, tracer dilution 1/100K

Substance | Relative % Cross-reactivity (Antibody RS2801; [2]) | Relative % Cross-reactivity (Antibody RS2801; [3]) | Relative Binding (IC50) (Antibody RS2801; [4]) | Relative Binding (IC50) (Antibody RS2801; [5]) | Relative % Cross-reactivity (Antibody RS2801; [6]) | Relative % Cross-reactivity (Antibody RS2801; [7]) | Relative Binding (IC50) (Antibody RS2801; [8]) | Relative Binding (IC50) (Antibody RS2801; [9]) | Relative % Cross-reactivity (Antibody RS2830; [2]) | Relative % Cross-reactivity (Antibody RS2830; [3]) | Relative Binding (IC50) (Antibody RS2830; [4]) | Relative Binding (IC50) (Antibody RS2830; [5]) | Relative % Cross-reactivity (Antibody RS2830; [6]) | Relative % Cross-reactivity (Antibody RS2830; [7]) | Relative Binding (IC50) (Antibody RS2830; [8]) | Relative Binding (IC50) (Antibody RS2830; [9]) | Relative % Cross-reactivity (Antibody RS2790; [10]) | Relative % Cross-reactivity (Antibody RS2790; [11]) | Relative Binding (IC50) (Antibody RS2790; [12]) | Relative Binding (IC50) (Antibody RS2790; [13]) | also measured
Polymyxin B | 100% | 100% | 0.09 ng/mL | 0.12 ng/mL | 100% | 100% | 0.16 ng/mL | 0.13 ng/mL | 100% | 100% | 0.15 ng/mL | 0.17 ng/mL | 100% | 100% | 0.17 ng/mL | 0.22 ng/mL | 100% | 100% | 0.14 ng/mL | 0.37 ng/mL | Relative % Cross-reactivity (Antibody RS2790; [14]): 100%; Relative % Cross-reactivity (Antibody RS2790; [15]): 100%; Relative Binding (IC50) (Antibody RS2790; [16]): 0.14 ng/mL; Relative Binding (IC50) (Antibody RS2790; [17]): 0.59 ng/mL; CR (percentage cross-reactivity) [1]: (CR = 100%); IC50 (standard concentration which produces 50% inhibition of maximal signal) [1]: 0.931 ng/mL; B/Bo ([1]; standard conc 0.078 ng/ml): 86%; B/Bo ([1]; standard conc 0.156 ng/ml): 78%; B/Bo ([1]; standard conc 0.313 ng/ml): 64%; B/Bo ([1]; standard conc 0.625 ng/ml): 56%; B/Bo ([1]; standard conc 1.250 ng/ml): 51%; B/Bo ([1]; standard conc 2.500 ng/ml): 38%; B/Bo ([1]; standard conc 5.000 ng/ml): 27%; B/Bo ([1]; standard conc 10.000 ng/ml): 16%
Colistin | 20% | 15% | 0.47 ng/mL | 0.78 ng/mL | 67% | 62% | 0.24 ng/mL | 0.22 ng/mL | 6% | 5% | 2.54 ng/mL | 3.62 ng/mL | 8% | 9% | 2.16 ng/mL | 2.47 ng/mL | 5% | 23% | 3.02 ng/mL | 1.60 ng/mL | Relative % Cross-reactivity (Antibody RS2790; [14]): 8%; Relative % Cross-reactivity (Antibody RS2790; [15]): 59%; Relative Binding (IC50) (Antibody RS2790; [16]): 1.72 ng/mL; Relative Binding (IC50) (Antibody RS2790; [17]): 1.01 ng/mL; CR (percentage cross-reactivity) [1]: (CR = 80%); IC50 (standard concentration which produces 50% inhibition of maximal signal) [1]: 1.191 ng/mL; B/Bo ([1]; standard conc 0.391 ng/ml): 71%; B/Bo ([1]; standard conc 0.781 ng/ml): 58%; B/Bo ([1]; standard conc 1.563 ng/ml): 44%; B/Bo ([1]; standard conc 3.125 ng/ml): 33%; B/Bo ([1]; standard conc 6.250 ng/ml): 17%; B/Bo ([1]; standard conc 12.500 ng/ml): 11%; B/Bo ([1]; standard conc 25.000 ng/ml): 9%; B/Bo ([1]; standard conc 50.000 ng/ml): 6%
